# Test results: patent US11584733B2, “Selective histone deacetylase inhibitors for the treatment of human disease” (Shuttle Pharmaceuticals, Inc., priority 2017, dated 2023)
# System: Pan HDAC (HeLa Nuclear Extract)
# Assay: Pan HDAC assay (Enzo Fluor-de-Lys fluorometric kit, HeLa Nuclear Extract)
# Type: biochemical
# Protocol: The Pan HDAC assays described herein were performed as follows:
# Materials: Enzo Fluor-de-Lys HDAC fluorometric activity assay kit; 360 nm excitation 460 nm emission Plate Reader; Disposable pipettes; Pipet-aid; Pipette tips; Micro-pipetter; DMSO; Sterile micro-tubes and conical tubes; and Micro-centrifuge.
# Test compounds and control preparation: All test compounds' stock solutions were made in 100% DMSO. Test compound dilutions were made in HDAC Assay buffer with a final concentration of DMSO less than or equal to 1%. Vehicle control was HDAC Assay buffer with 1% DMSO.
# The reagents for the assay were prepared as follows:
# 1. All kit components were defrosted and these, and all dilutions described below, were kept on ice until use. All undiluted kit components are stable for several hours on ice.
# 2. A sufficient amount of HeLa Nuclear Extract (BML-KI140) or other HDAC source diluted in Assay Buffer (BML-KI143) was prepared to provide for the assays that were performed (# of wells×15 μl). A 30-fold dilution of the HeLa Extract means that 15 μL contains 0.5 μl of the undiluted Extract, an appropriate amount to use per well.
# 3. Dilution(s) of SAHA and/or Test Inhibitors were prepared in Assay Buffer (BML-K1143). Since 10 μl were used per well, and since the final volume of the HDAC reaction was 50 μl, these inhibitor dilutions were 5× their final concentration.
# 4. Dilution(s) of the Fluor de Lys® Substrate (BML-KI104; 50 mM) were prepared in Assay Buffer (BML-K1143) that were 2× the desired final concentration(s). For inhibitor screening, substrate concentrations at or below the Km are recommended. Twenty-five μL were used per well. Initial dilutions of 25-fold or greater in Assay Buffer (2.0 mM or less) yielded stable solutions (see NOTE on freezing and thawing below). Rapid mixing and dilution into room temperature buffer helped to prevent precipitation at high substrate concentration. […]
# 6. Samples were read in a microtiter-plate reading fluorimeter capable of excitation at a wavelength in the range 350-380 nm and detection of emitted light in the range 440-460 nm.
EC50 (FIG. 4),"IC50 (Example 6, FIG. 18, 2 mg/mL formulation in 5% DMSO/40% PEG 400/55% PBS, read-out: IC50 against the PAN HDAC)",SMILES,"inhibitor activity in the pan-HDACs assays (between 5 μM and 15 μM, FIGS. 2 to 4)"
16.4 µM,–,"O=C(CCCCCCC(=O)NC1CCC(=O)NC1=O)NO (stereo not drawn) [SP-2-59, N^1-(2,6-dioxopiperidin-3-yl)-N^8-hydroxyoctanediamide]",minimal inhibitor activity
–,1.89 µM,"O=C(CCCCCCC(=O)Nc1cccc2c1CN(C1CCC(=O)NC1=O)C2=O)NO (stereo not drawn) [SP-2-93, N^1-(2-(2,6-dioxopiperidin-3-yl)-1-oxoisoindolin-4-yl)-N^8-hydroxyoctanediamide]",–
